Experimental data taken from PubChem BioAssay AID242 (DTP/NCI, 2004).
“And” between values parts separate entries of the source, which are not always exact repeats. Identical values can stand only once. Toxic doses and inconclusive results are not listed. The calls were made as follows: active = survival T/C of 150% or more; inactive = T/C below 125% in these data.

Test system: BDF1 mice, Lymphoma 8 ip, survival T/C
Experiment: NCI In Vivo Anticancer Drug Screen. Data for tumor model Lymphoma 8 (intraperitoneal) in B6D2F1 (BDF1) mice
Details: higher = longer survival
Experimental: The antitumor activity of compounds was measured in mice bearing transplantable tumors. Survival or tumor size were measured and the results are expressed as the measurement made in the treated group (T) divided by the measurement made in the vehicle treated control group (C). The tumor model used in this assay is Lymphoma 8 (intraperitoneal) in B6D2F1 (BDF1) mice

Measured: T/C

O=C(O)CC(NC(=O)CP(=O)(O)O)C(=O)O (stereo not drawn)
inactive: endpoint: median survival time, dose: 62.2 mg/kg/injection, schedule: Q04DX003 (ip), vehicle: saline 101 % of control | endpoint: median survival time, dose: 104.0 mg/kg/injection, schedule: Q04DX003 (ip), vehicle: saline 114 % of control | endpoint: median survival time, dose: 173.0 mg/kg/injection, schedule: Q04DX003 (ip), vehicle: saline 103 % of control | endpoint: median survival time, dose: 288.0 mg/kg/injection, schedule: Q04DX003 (ip), vehicle: saline 108 % of control | endpoint: median survival time, dose: 480.0 mg/kg/injection, schedule: Q04DX003 (ip), vehicle: saline 111 % of control

Cc1cc(N(CCCl)CCCl)ccc1N=Nc1ccccc1C(=O)O
inactive: endpoint: survival time, mean or median, dose: 5.0 mg/kg/injection, schedule: Q01DX010 (ip), vehicle: saline 91 % of control and 107 % of control | endpoint: survival time, mean or median, dose: 10.0 mg/kg/injection, schedule: Q01DX010 (ip), vehicle: saline 108 % of control and 110 % of control | endpoint: survival time, mean or median, dose: 20.0 mg/kg/injection, schedule: Q01DX010 (ip), vehicle: saline 108 % of control

N#CCSc1ncnc2nc[nH]c12
inactive: endpoint: survival time, mean or median, dose: 15.0 mg/kg/injection, schedule: Q01DX010 (ip), vehicle: saline 100 % of control | endpoint: survival time, mean or median, dose: 30.0 mg/kg/injection, schedule: Q01DX010 (ip), vehicle: saline 95 % of control and 104 % of control | endpoint: survival time, mean or median, dose: 60.0 mg/kg/injection, schedule: Q01DX010 (ip), vehicle: saline 100 % of control | endpoint: survival time, mean or median, dose: 120.0 mg/kg/injection, schedule: Q01DX010 (ip), vehicle: saline 100 % of control

CCCCNc1ncnc2c1cnn2C
inactive: endpoint: survival time, mean or median, dose: 31.3 mg/kg/injection, schedule: Q01DX010 (ip), vehicle: saline 87 % of control and 95 % of control and 100 % of control | endpoint: survival time, mean or median, dose: 62.5 mg/kg/injection, schedule: Q01DX010 (ip), vehicle: saline 86 % of control and 97 % of control and 100 % of control | endpoint: survival time, mean or median, dose: 125.0 mg/kg/injection, schedule: Q01DX010 (ip), vehicle: saline 90 % of control

C=CCSc1nc(N)nc2nc[nH]c12
inactive: endpoint: survival time, mean or median, dose: 16.0 mg/kg/injection, schedule: Q01DX015 (ip), vehicle: other 101 % of control | endpoint: survival time, mean or median, dose: 31.0 mg/kg/injection, schedule: Q01DX015 (ip), vehicle: other 100 % of control | endpoint: survival time, mean or median, dose: 62.5 mg/kg/injection, schedule: Q01DX015 (ip), vehicle: other 90 % of control
